From ChEMBL document CHEMBL3351403, “Lead identification of benzimidazolone and azabenzimidazolone arylsulfonamides as CC-chemokine receptor 4 (CCR4) antagonists” (Bioorg Med Chem, 2014)

Experiment: Lipophilicity, log D of the compound at pH 7.4 by chromatography
Type: physicochemical
Settings: buffer

Structure (SMILES) | chromatographic logD
COc1cccc2c1c(NS(=O)(=O)c1cccc(Cl)c1Cl)nn2C | 5.3
COc1cc2[nH]c(=O)[nH]c2cc1NS(=O)(=O)c1cccc(Cl)c1Cl | 3.2
COc1cc2c(cc1NS(=O)(=O)c1cccc(Cl)c1Cl)[nH]c(=O)n2C | 3.8
COc1cc2[nH]c(=O)n(C)c2cc1NS(=O)(=O)c1cccc(Cl)c1Cl | 3.7
COc1cc2c(cc1NS(=O)(=O)c1cccc(Cl)c1Cl)n(C)c(=O)n2C | 4.4
COc1cc2c(cc1NS(=O)(=O)c1cccc(Cl)c1Cl)[nH]c(=O)n2CC(N)=O | 2.5
COc1cc2[nH]c(=O)n(CC(N)=O)c2cc1NS(=O)(=O)c1cccc(Cl)c1Cl | 2.4
COc1cc2c(cc1NS(=O)(=O)c1cccc(Cl)c1Cl)[nH]c(=O)n2C(C)C | 4.7
COc1cc2c(cc1NS(=O)(=O)c1cccc(Cl)c1Cl)[nH]c(=O)n2C1COC1 | 4.6
CCCn1c(=O)[nH]c2cc(NS(=O)(=O)c3cccc(Cl)c3Cl)c(OC)cc21 | 3.2
COc1cc2c(cc1NS(=O)(=O)c1cccc(Cl)c1Cl)[nH]c(=O)n2CCN(C)C | 2.6
COc1cc2c(cc1NS(=O)(=O)c1cccc(Cl)c1Cl)[nH]c(=O)n2C(CO)CO | 2.1
COc1cc2c(cc1NS(=O)(=O)c1cccc(Cl)c1Cl)[nH]c(=O)n2C1CNC1 | 3
COc1cc2c(cc1NS(=O)(=O)c1cccc(Cl)c1Cl)[nH]c(=O)n2C1CN(C(C)=O)C1 | 3.7
COc1cc2[nH]c(=O)[nH]c2nc1NS(=O)(=O)c1cccc(Cl)c1Cl | 2.4
COc1nc2[nH]c(=O)[nH]c2cc1NS(=O)(=O)c1cccc(Cl)c1Cl | 3.2
